Laboratory results reported in patent US11498920B2, “4-(1H-imidazol-5-yl)-1H-pyrrolo[2, 3-b] pyridines for use in the treatment of leukaemias, lymphomas and solid tumors” (MASARYKOVA UNIVERZITA, priority 2018, dated 2022).

Tested on: primary CLL cells
Test: Cytotoxicity, TMRE flow cytometry viability, primary CLL cells (Example II.1)
Format: cell-based
Conditions: Homo sapiens, CLL cell, 6 hours, TMRE positive cells normalized to control, ratio to PF670462, <1 = higher cytotoxicity than PF670462, read-out: Viability of cells, Compound of formula I (100 μM), relative to PF670462 (100 μM), CLL primary cells
Experimental: The leukemia and lymphoma-derived cell lines [MEC-1 cell line (derived from chronic lymphocytic leukemia—CLL), Nalm-16 (acute lymphocytic leukemia—ALL), K562 (chronic myeloid leukemia—CML), HL-60 (acute myeloid leukemia—AML), Maver-1 and Mino (mantle cell lymphoma—MCL), BL-41 (Burkitt lymphoma—BL), WSU-NHL (follicular lymphoma—FL), SUDHL (diffuse large B-cell lymphoma—DLBCL)], primary CLL cells and nonmalignant control primary cells were cultured in suspension in flasks under the following conditions: RPMI 1640 medium (Hyclone) supplemented with 10% fetal bovine serum (FBS, Gibco) and 1% penicillin/streptomycin (Life Technologies), 37° C., 5% CO2 and 95% relative humidity, with optimal culture cell density 5×10^6 cells/mL in case of primary cells and 0.5-1×10^6 cells/mL in case of cell lines. The adherent cell lines [A375 (derived from malignant melanoma), MDA-MB-231 and MCF-7 (breast cancer), MIA-PA-CA and PANC1 (pancreatic cancer), PC3 (prostate cancer), OVCAR4 (ovarian cancer) and HEPG2 (hepatocellular carcinoma)] were cultured on plates under the same conditions using RPMI1640 or DMEM medium (Gibco) according to instructions provided by the distributor (DSMZ/ATCC).
Cytotoxicity of compounds of formula I was tested in two models representative for leukemia (primary CLL cells) and lymphoma (Maver-1 cells). The primary CLL cells and Maver-1 cells (MCL-derived) were incubated with inhibitors at 100 μM concentration or corresponding amount of solvent (DMSO, Sigma Aldrich) as 0.1×10^6 cells/200 μl per well in a 96-well plate. Experiments were performed in technical duplicates. Viability of cells was assessed after 6 hours in case of primary CLL cells and after 24 hours in case of Maver-1 cells.
Apoptosis-induced reduction of mitochondrial potential is detected as lower TMRE fluorescence. […] Relative values are presented, showing ratio to the effect of PF670462 (as the closest prior art). Relative value <1 indicates a higher cytotoxicity than PF670462.

SMILES	viability at 100 µM [%]
Fc1ccc(-c2ncn(CCN3CCOCC3)c2-c2ccnc3[nH]ccc23)cc1 [Preparative Example 12, 4-(2-(4-(4-fluorophenyl)-5-(1H-pyrrolo[2,3-b]pyridin-4-yl)-1H-imidazol-1-yl)ethyl)morpholine]	80
Fc1ccc(-c2ncn(C3CCOCC3)c2-c2ccnc3[nH]ccc23)cc1 [Preparative Example 13, 4-(4-(4-fluorophenyl)-1-(tetrahydro-2H-pyran-4-yl)-1H-imidazol-5-yl)-1H-pyrrolo[2,3-b]pyridine]	47
CC(C)CCn1cnc(-c2ccc(F)cc2)c1-c1ccnc2[nH]ccc12 [Preparative Example 15, 4-(4-(4-fluorophenyl)-1-isopentyl-1H-imidazol-5-yl)-1H-pyrrolo[2,3-b]pyridine]	13
Fc1ccc(-c2ncn(C3CCOC3)c2-c2ccnc3[nH]ccc23)cc1 (stereo not shown) [Preparative Example 16, 4-(4-(4-fluorophenyl)-1-(tetrahydrofuran-3-yl)-1H-imidazol-5-yl)-1H-pyrrolo[2,3-b]pyridine]	67
Fc1ccc(-c2ncn(C3CCC3)c2-c2ccnc3[nH]ccc23)cc1 [Preparative Example 17, 4-(1-cyclobutyl-4-(4-fluorophenyl)-1H-imidazol-5-yl)-1H-pyrrolo[2,3-b]pyridine]	52
Fc1ccc(-c2ncn(C3CCCC3)c2-c2ccnc3[nH]ccc23)cc1 [Preparative Example 18, 4-(1-cyclopentyl-4-(4-fluorophenyl)-1H-imidazol-5-yl)-1H-pyrrolo[2,3-b]pyridine]	33
CC(C)OCCn1cnc(-c2ccc(F)cc2)c1-c1ccnc2[nH]ccc12 [Preparative Example 20, 4-(4-(4-fluorophenyl)-1-(2-isopropoxyethyl)-1H-imidazol-5-yl)-1H-pyrrolo[2,3-b]pyridine]	68
CN(C)CCn1cnc(-c2ccc(F)cc2)c1-c1ccnc2[nH]ccc12 [Preparative Example 21]	72
Cn1cnc(-c2ccc(F)cc2)c1-c1ccnc2[nH]ccc12 [Preparative Example 25]	81
CO[C@H]1CC[C@H](n2cnc(-c3ccc(F)cc3)c2-c2ccnc3[nH]ccc23)CC1 [Preparative Example 28, 4-(4-(4-fluorophenyl)-1-(trans-4-methoxycyclohexyl)-1H-imidazol-5-yl)-1H-pyrrolo[2,3-b]pyridine]	67
C=C(C)Cn1cnc(-c2ccc(F)cc2)c1-c1ccnc2[nH]ccc12 [Preparative Example 30, 4-(4-(4-fluorophenyl)-1-(2-methylallyl)-1H-imidazol-5-yl)-1H-pyrrolo[2,3-b]pyridine]	69
O[C@H]1CC[C@@H](n2cnc(-c3ccc(F)cc3)c2-c2ccnc3[nH]ccc23)CC1 [Preparative Example 31]	78
O[C@H]1CC[C@H](n2cnc(-c3ccc(F)cc3)c2-c2ccnc3[nH]ccc23)CC1 [Preparative Example 32, trans-4-(4-(4-fluorophenyl)-5-(1H-pyrrolo[2,3-b]pyridin-4-yl)-1H-imidazol-1-yl)cyclohexan-1-ol]	67
c1cncc(-c2ncn(C3CCCCC3)c2-c2ccnc3[nH]ccc23)c1 [Preparative Example 44]	81
CC(=O)N1CCC(n2cnc(-c3ccc(F)cc3)c2-c2ccnc3[nH]ccc23)CC1 [Preparative Example 68, 1-(4-(4-(4-fluorophenyl)-5-(1H-pyrrolo[2,3-b]pyridin-4-yl)-1H-imidazol-1-yl)piperidin-1-yl)ethan-1-one]	81
CC(=O)N[C@H]1CC[C@H](n2cnc(-c3ccc(F)cc3)c2-c2ccnc3[nH]ccc23)CC1 [Preparative Example 78, N-(trans-4-(4-(4-fluorophenyl)-5-(1H-pyrrolo[2,3-b]pyridin-4-yl)-1H-imidazol-1-yl)cyclohexyl)acetamide]	87
